# Source: patent publication US20220235032A1 (GENFLEET THERAPEUTICS (SHANGHAI) INC., priority 2019, published 2022)
# Test system: U937 cells
# Assay: Inhibitory activity against programmed necroptosis of U937 cells induced by TNF-α and Q-VD-Oph (CellTiter-Glo)
# Format: cell-based
# Conditions: Homo sapiens, U-937, 48 h, Celltiter-Glo survival rate
# Protocol: The U937 cell strain which was used in the following Testing Examples was derived from ATCC, No.: CRL-1593.2, batch No.: 63479999, culture medium: RPMI-1640+10% FBS.
# The compound to be tested was dissolved in DMSO, and diluted with DMSO to a series of gradient concentrations. The U937 cells were inoculated in a 384-well plate at 5000/well. The compound at respective concentration was added to each of the wells, and was mixed with the cells homogeneously. Human TNF-α and Q-VD-Oph were added simultaneously to induce programmed necroptosis of the cells. The cells were placed in the incubator at 37° C. and 5% CO2 for further culture of 48 h. Celltiter-Glo reagent was used for detection. After adequate pyrolysis reaction, the chemiluminescence readout value was recorded by a microplate reader. The survival rate was calculated from the detection results using the equation as follows: SR (%)=(RLU compound−RLU blank)/(RLU high control−RLU blank)×100%. The survival rate was plotted against the final concentration of respective compound using a 4-parameter fitting to calculate the inhibitory C50 of the compound against programmed necroptosis of cells induced by TNF-α.
row,Structure (SMILES),IC50 [nM]
1,"COc1nccc(N2CCC(C(=O)N3N=CCC3c3ccccc3)C3(CC3)C2)n1 (racemic) [Compound Z-41-1, (5-(2-methoxypyrimidin-4-yl)-5-aza-spiro[2.5]oct-8-yl)(5-phenyl-4,5-dihydro-1H-pyrazol-1-yl) ketone]",5
2,"NC(=O)c1ccnc(N2CCC(C(=O)N3N=CCC3c3cc(F)cc(F)c3)C3(CC3)C2)n1 (racemic) [Compound Z-46-1, 2-(8-(5-(3,5-difluorophenyl)-4,5-dihydro-1H-pyrazole-1-carbonyl)-5-aza-spiro[2.5]oct-5-yl)pyrimidine-4-carboxamide]",4
3,"NC(=O)c1cc(N2CC3CC(C(=O)N4N=CCC4c4cc(F)cc(F)c4)CC3C2)ncn1 (centres unmarked) [Compound Z-17, 6-(5-(5-(3,5-difluorophenyl)-4,5-dihydro-1H-pyrazole-1-carbonyl)hexahydrocyclopenta[c]pyrrol-2(1H)-yl)pyrimidine-4-carboxamide]",248
4,"N#Cc1cc(N2CCC(C(=O)N3N=CCC3c3cc(F)cc(F)c3)CC23CC3)ncn1 (centres unmarked) [Compound Z-62, 6-(7-(5-(3,5-difluorophenyl)-4,5-dihydro-1H-pyrazole-1-carbonyl)-4-aza-spiro[2.5]oct-4-yl)pyrimidine-4-carbonitrile]",7
5,"NC(=O)c1ccnc(N2CC3CC(C(=O)N4N=CCC4c4cc(F)ccc4F)CC3C2)n1 (centres unmarked) [Compound Z-22, 2-(5-(5-(2,5-difluorophenyl)-4,5-dihydro-1H-pyrazole-1-carbonyl)hexahydrocyclopenta [c]pyrrol-2(1H)-yl)pyrimidine-4-carboxamide]",70
6,"COc1cc(N2CCC(C(=O)N3N=CCC3c3ccccc3)C3(CC3)C2)ncn1 (racemic) [Compound Z-40-1, (5-(6-methoxypyrimidin-4-yl)-5-aza-spiro[2.5]oct-8-yl)(5-phenyl-4,5-dihydro-1H-pyrazol-1-yl) ketone]",9
7,"NC(=O)c1cc(N2CC3CC(C(=O)N4N=CCC4c4cc(F)ccc4F)CC3C2)ncn1 (centres unmarked) [Compound Z-20, 6-(5-(5-(2,5-difluorophenyl)-4,5-dihydro-1H-pyrazole-1-carbonyl)hexahydrocyclopenta[c]pyrrol-2(1H)-yl)pyrimidine-4-carboxamide]",272
8,"N#Cc1ccnc(N2CC3CC(C(=O)N4N=CCC4c4cc(F)cc(F)c4)CC3C2)n1 (centres unmarked) [Compound Z-32, 2-(5-(5-(3,5-difluorophenyl)-4,5-dihydro-1H-pyrazole-1-carbonyl)hexahydrocyclopenta [c]pyrrol-2(1H)-yl)pyrimidine-4-carbonitrile]",60
9,"N#Cc1cc(N2CCC(C(=O)N3N=CCC3c3cncc(F)c3)CC23CC3)ncn1 (centres unmarked) [Compound Z-65, 6-(7-(5-(5-fluoropyridin-3-yl)-4,5-dihydro-1H-pyrazole-1-carbonyl)-4-aza-spiro[2.5]oct-4-yl)pyrimidine-4-carbonitrile]",52
10,"NC(=O)c1cc(N2CCC(C(=O)N3N=CCC3c3cc(F)cc(F)c3)CC23CC3)ncn1 (racemic) [Compound Z-64-a, 6-(7-(5-(3,5-difluorophenyl)-4,5-dihydro-1H-pyrazole-1-carbonyl)-4-aza-spiro[2.5]oct-4-yl)pyrimidine-4-carboxamide]",10
11,"NC(=O)c1cc(N2CCC(C(=O)N3N=CCC3c3cncc(F)c3)CC23CC3)ncn1 (centres unmarked) [Compound Z-67, 6-(7-(5-(5-fluoropyridin-3-yl)-4,5-dihydro-1H-pyrazole-1-carbonyl)-4-aza-spiro[2.5]oct-4-yl)pyrimidine-4-carboxamide]",115
12,"NC(=O)c1cc(N2CCC(C(=O)N3N=CCC3c3cc(F)cc(F)c3)C3(CC3)C2)ncn1 (racemic) [Compound Z-44-2, 6-(8-(5-(3,5-difluorophenyl)-4,5-dihydro-1H-pyrazole-1-carbonyl)-5-aza-spiro[2.5]oct-5-yl)pyrimidine-4-carboxamide]",22
13,"N#Cc1cc(N2CC[C@@H](C(=O)N3N=CC[C@@H]3c3cncc(F)c3)CC23CC3)ncn1 (single isomer, unassigned) [Compound Z-65-4]",14
14,"NC(=O)c1ccnc(N2CC3CC(C(=O)N4N=CCC4c4cc(F)cc(F)c4)CC3C2)n1 (centres unmarked) [Compound Z-18, 2-(5-(5-(3,5-difluorophenyl)-4,5-dihydro-1H-pyrazole-1-carbonyl)hexahydrocyclopenta [c]pyrrol-2(1H)-yl)pyrimidine-4-carboxamide]",94
15,"NC(=O)c1ccnc(N2C[C@H]3C[C@H](C(=O)N4N=CC[C@@H]4c4cc(F)ccc4F)C[C@H]3C2)n1 (single isomer, unassigned) [Compound Z-22-2]",48
16,"N#Cc1ccnc(N2CC3CC(C(=O)N4N=CCC4c4cc(F)ccc4F)CC3C2)n1 (centres unmarked) [Compound Z-24, 2-(5-(5-(2,5-difluorophenyl)-4,5-dihydro-1H-pyrazole-1-carbonyl)hexahydrocyclopenta[c]pyrrol-2(1H)-yl)pyrimidine-4-carbonitrile]",181
17,"Nc1nc(N2CC3CC(C(=O)N4N=CCC4c4cc(F)cc(F)c4)CC3C2)ncc1F (centres unmarked) [Compound Z-23, (2-(4-amino-5-fluoropyrimidin-2-yl)octahydrocyclopenta[c]pyrrol-5-yl)(5-(3,5-difluorophenyl)-4,5-dihydro-1H-pyrazol-1-yl) ketone]",52
18,"Nc1nc(N2CC3CC(C(=O)N4N=CCC4c4cncc(F)c4)CC3C2)ncc1F (centres unmarked) [Compound Z-30, (2-(4-amino-5-fluoropyrimidin-2-yl)octahydrocyclopenta[c]pyrrol-5-yl)(5-(5-fluoropyridin-3-yl)-4,5-dihydro-1H-pyrazol-1-yl) ketone]",449
19,"Nc1nc(N2CC3CC(C(=O)N4N=CCC4c4ccccc4)CC3C2)ncc1F (centres unmarked) [Compound Z-14, (2-(4-amino-5-fluoropyrimidin-2-yl)octahydrocyclopenta[c]pyrrol-5-yl)(5-phenyl-4,5-dihydro-1H-pyrazol-1-yl) ketone]",165

# Same assay, conditions: human TNF-α + Q-VD-Oph induced necroptosis, 48 h, Celltiter-Glo survival rate
row,Structure (SMILES),IC50 [nM]
1,"N#Cc1ccnc(N2C[C@H]3C[C@@H](C(=O)N4N=CC[C@@H]4c4cc(F)cc(F)c4)C[C@H]3C2)n1 (single isomer, unassigned) [Compound Z-32-4]",61
2,"Cc1nnc(N2CCC(C(=O)N3N=CCC3c3cncc(F)c3)C3(CC3)C2)o1 (centres unmarked) [Compound Z-68, (5-(5-fluoropyridin-3-yl)-4,5-dihydro-1H-pyrazol-1-yl)(5-(5-methyl-1,3,4-oxadizol-2-yl)-5-aza-spiro[2.5]oct-8-yl) methanone]",364
3,"NC(=O)c1cc(N2CCC(C(=O)N3N=CCC3c3cc(F)ccc3F)C3(CC3)C2)ncn1 (racemic) [Compound Z-53-1, 6-(8-(5-(2,5-difluorophenyl)-4,5-dihydro-1H-pyrazole-1-carbonyl)-5-aza-spiro[2.5]oct-5-yl)pyrimidine-4-carboxamide]",26
4,"N#Cc1cc(N2CCC(C(=O)N3N=CCC3c3cc(F)ccc3F)C3(CC3)C2)ncn1 (racemic) [Compound Z-52-1, 6-(8-(5-(2,5-difluorophenyl)-4,5-dihydro-1H-pyrazole-1-carbonyl)-5-aza-spiro[2.5]oct-5-yl)pyrimidine-4-carbonitrile]",4
5,"N#Cc1cc(N2C[C@H]3C[C@H](C(=O)N4N=CC[C@@H]4c4cc(F)cc(F)c4)C[C@H]3C2)ncn1 (single isomer, unassigned) [Compound Z-38-2]",27
6,"NC(=O)c1ccnc(N2C[C@@H]3CC(C(=O)N4N=CC[C@@H]4c4cc(F)cc(F)c4)C[C@H]3C2)n1 (single isomer, unassigned) [Compound Z-18-4]",62
7,"CNC(=O)c1cc(N2CCC(C(=O)N3N=CCC3c3cc(F)cc(F)c3)CC23CC3)ncn1 (centres unmarked) [Compound Z-70-a, 6-(7-(5-(3,5-difluorophenyl)-4,5-dihydro-11H-pyrazole-1-carbonyl)-4-aza-spiro[2.5]oct-4-yl)-N-methylpyrimidine-4-carboxamide]",21
8,"Cc1nnc(N2CCC(C(=O)N3N=CCC3c3cc(F)cc(F)c3)C3(CC3)C2)o1 (centres unmarked) [Compound Z-61, (5-(3,5-difluorophenyl)-4,5-dihydro-1H-pyrazol-1-yl)(5-(5-methyl-1,3,4-oxadizol-2-yl)-5-aza-spiro[2.5]octane-8-yl) ketone]",53
9,"Cc1nnc(N2CCC(C(=O)N3N=CCC3c3cc(F)cc(F)c3)C3(CC3)C2)o1 (centres unmarked) [Compound Z-63-2, (5-(3,5-difluorophenyl)-4,5-dihydro-1H-pyrazol-1-yl)(5-(5-methyl-1,3,4-oxadizol-2-yl)-5-aza-spiro[2.5]octane-8-yl) ketone]",21
10,"N#Cc1cc(N2CC3CCC(C2)C3C(=O)N2N=CCC2c2ccccc2)ncn1 (single isomer, unassigned) [Compound Z-3, 6-(8-(5-phenyl-4,5-dihydro-1H-pyrazole-1-carbonyl)-3-azabicyclo[3.2.1]oct-3-yl)pyrimidine-4-carbonitrile]",322
11,"COc1nccc(N2C[C@H]3C[C@H](C(=O)N4N=CC[C@@H]4c4ccccc4)C[C@H]3C2)n1 (single isomer, unassigned) [Compound Z-37-2]",22
12,"N#Cc1cc(N2CCC(C(=O)N3N=CCC3c3cncc(F)c3)C3(CC3)C2)ncn1 (racemic) [Compound Z-48-2, 6-(8-(5-(5-fluoropyridin-3-yl)-4,5-dihydro-1H-pyrazole-1-carbonyl)-5-aza-spiro[2.5]oct-5-yl)pyrimidine-4-carbonitrile]",361
13,"NC(=O)c1cc(N2CCC(C(=O)N3N=CCC3c3cc(F)cc(F)c3)CC23CC3)ncn1 (centres unmarked) [Compound Z-66, 6-(7-(5-(3,5-difluorophenyl)-4,5-dihydro-1H-pyrazole-1-carbonyl)-4-aza-spiro[2.5]oct-4-yl)pyrimidine-4-carboxamide]",20
